Test results taken from PMC3695357, “Identification of Novel IGF1R Kinase Inhibitors by Molecular Modeling and High-Throughput Screening” (Acta Naturae, 2013).

Assays:
Type in all cases: biochemical
IGF1R kinase [1] = biological target: T1, IGF1R kinase (Homo sapiens, UniProt P08069); experiment: Michaelis-Menten kinetics / Lineweaver-Burk competition analysis; conditions: Lineweaver-Burk plot; for inhibition mechanism with regard to ATP: IGF1Rtide 143 μg/ml, ATP titrated; for inhibition mechanism with regard to the substrate: poly(Glu4,Tyr1) titrated, ATP 250 μM
T1 construct: This assay utilizes a recombinant intracellular kinase domain fragment of IGF1R; purchased Promega Corp
Description: (§1) Multi-well liquid dispensing for setting up assays was performed using either the robotic liquid handler PlateMate Plus or the manual electronic multichannel micropipettes Matrix Impact (Thermo Scientific, Hudson, NH, USA). High-throughput Screening (HTS), kinase selectivity, and dose-response (IC50) assays were read in the luminescence mode using the PolarStar Omega reader (BMG Labtech, Ortenberg, Germany) or M5 reader (Molecular Devices Corp., Sunnyvale, CA). IGF1R ADP-Glo data in relative luminescence units (RLU) were collected from the plate readers, and the percentage of activity (% Activity) was determined for each point as follows: % Activity = 100*(RLU sample – RLU no kinase control avg)/(RLU kinase control avg – RLU no kinase control avg). The screening data were processed and visualized using Microsoft Excel templates designed to calculate the inhibition values, the Z’-factor, and GraphPad Prism 5 (GraphPad Software, Inc., La Jolla, CA) for IC50 analysis. The doseresponse curves of Percent Activity were fit in Prism, using a sigmoidal variable slope fit with the maximum % activity and the minimum % activity fixed at 100% and 0%, respectively. The Z′ factor, a statistical measure of variability and reproducibility for HTS assays, was determined using the following formula: Z′ = 1-[3 × (SDsample+SDcontol)/|Msample-Mcontrol|] [12], where SD denotes the standard deviation and M denotes the mean for the samples and controls, respectively. Prior to starting HTS, assay conditions were optimized and validated with regard to the maximum ATP turnover (never exceeding 20%), an acceptable signal-to-background ratio (“assay window”) of at least 6, an acceptable Z’-factor of at least 0.6, as well as day-to-day and plate-to-plate reproducibility of the screening data. All primary screening was performed at 20 μM compound concentrations, and some of the weak hits were subsequently re-tested at higher concentrations (40 or 80 μM) for confirmation. Statistically significant HTS hits in the primary screening were defined as those that produced a kinase activity signal at least three standard deviations lower than the mean of the assay plate run (not including the plate controls). Lineweaver- Burk plots were created in Excel or Prism using the standard algorithms. All assay development and validation and high-throughput screening procedures were carried out according to the general guidelines as published on the U.S. National Chemical Genomics Center web site (NC GC Assay Guidance Manual and High-throughput Assay Guidance Criteria, http://www.ncbi.nlm.nih.gov/books/NBK53196/).
Serial dilutions of ATP and substrate polypeptide poly(Glu4,Tyr1) were tested in IGF1R kinase assays with the inhibitors L1 and T4 to produce the kinetic data for Lineweaver-Burk plots. […]

Syk kinase = Syk kinase (Homo sapiens, UniProt P43405); experiment: Syk ADP-Glo kinase selectivity assay, single concentration; conditions: remaining kinase activity at 40 μM compound, 50 μM ATP
Description: (§2) Kinase selectivity assays with InsR (dose-response measurements) and Met, Syk and BTK kinases (single point compound concentrations) using the ADP-Glo readout system were run under optimized experimental conditions similar to the IGF1R assay with regard to the kinetic parameters of kinase reactions.
(§3) The amounts of the Met, Syk, and BTK enzymes and the incubation time were optimized to ensure an ATP conversion not higher than 20% in all cases. The typical assay window (signal/background) was 3–5 for all kinases. The final volumes of the Met, Syk, and BTK kinase assay reaction mixtures were 5 μL. Two μL of the enzyme solution in a 1× reaction buffer (6 ng Met, 8 ng BTK, 4 ng Syk), 1 μL of the compound solution in a 2× reaction buffer, the ATP and substrate mixture in a 0.5× reaction mixture were added sequentially. The composition of the 1× reaction buffer was 40 mM Tris, 20 mM magnesium chloride, 0.1 mg/ml bovine serum albumin, 500 μM DTT at pH 7.5 with 1% final concentration of the DMSO, 50 μM ATP, and 0.2 mg/ml Poly(Glu4, Tyr1) substrates. The buffer was supplemented with 2 mM manganese (II) chloride in the case of BTK kinase. Compounds were tested at 40 μM concentrations. In each experiment, 6 wells with the enzyme, but no added compounds, were used as negative inhibition controls; 6 wells without tested compounds and the enzyme and 6 wells with the enzyme and 0.5–1 μM staurosporine were used as positive inhibition controls. Pre-incubation of the reaction mixture with compounds prior to ATP addition was performed for 20 min at 25°C in all experiments. The incubation of the reaction mixture lasted for 25 min at 37°C. All compounds were tested in 4 to 6 repeats. Conditions of ADP detection were as follows: 40 min incubation with an ADP-Glo reagent, followed by 30 min with a detection reagent at 25°C. Luminescence was read using a BMG Polarstar Omega reader at a gain setting of 4095 and measurement time of 0.5 s.

Met kinase = Met kinase (Homo sapiens, UniProt P08581); experiment: Met ADP-Glo kinase selectivity assay, single concentration; conditions: remaining kinase activity at 40 μM compound, 50 μM ATP
Description: as §2, §3

IGF1R kinase [2] = biological target: T1, IGF1R kinase; experiment: IGF1R ADP-Glo kinase assay, dose-response; conditions: for IC50: ADP-Glo, 8-point curves from 100 μM, 50 μM ATP; for selectivity for IGF1R versus InsR: from IC50 values of Table 1
Description: as §1
IGF1R high throughput screening (HTS) assays using the IGF1R Kinase System and ADP-Glo readout system (Promega Corp.) were performed in a final volume of 7 μL per test compound using a 384-well small volume microplate format. All liquid dispensing was done using the PlateMate Plus robotic liquid handler. 3 μL aliquots of the enzyme/substrate mixture containing 1 μg of the IGF1Rtide peptide substrate and 4 ng of recombinant IGF1R kinase in a 0.66× assay buffer were transferred to the plate wells. The assay buffer (1×) consisted of 40 mM Tris chloride, 20 mM magnesium chloride, 0,1 mg/ml bovine serum albumin, 2 mM manganese chloride, and 250 μM dithiothreitol (DTT ). To add the tested compounds to the reaction, starting stocks of 10 mM compounds in dimethyl sulfoxide (DMSO) were diluted with DMSO to 2 mM. Next, 3 μL aliquots of 2 mM compound stock solutions in DMSO were transferred to 83 μL volumes of a 1× reaction buffer and thoroughly mixed. Aqueous compound solution aliquots of 2 μL were then transferred into the assay plate to get a final concentration of each compound of 20 μM in 1% DMSO. The plates were pre-incubated at 27°C for 10 min with gentle shaking (300 rpm). The assay was started by adding 2 μL of the ATP stock solution to the reaction mixture to achieve a final ATP concentration of 50 μM. […]

InsR kinase = biological target: T2, InsR kinase (Homo sapiens, UniProt P06213); experiment: InsR ADP-Glo kinase assay, dose-response; conditions: for IC50: ADP-Glo, 8-point curves from 100 μM; for stronger inhibition of InsR versus IGF1R: from IC50 values of Table 1
T2 construct: the amount of recombinant insulin receptor kinase was 2 ng per well
Description: as §2
Dose-response and IC50 measurements for the confirmed screening hits were conducted for IGF1R and InsR kinases. The conditions were similar to the HTS conditions described above, except that the compounds were plated in 8-point curves serially diluted 1:2 from 100 μM top concentrations and with a 1% final DMSO throughout, in quadruplicates for each compound dilution point. The time of incubation of kinase reaction mixtures was 2.5 or 4.5 hours at 27°C in different experiments both for the insulin kinase receptor and IGF1R, the dithiotreitol (DTT ) concentration was 500 μM, and the amount of recombinant insulin receptor kinase was 2 ng per well. DTT concentration was elevated to enhance the stability of the enzymes during 4.5 h incubation experiments. Compounds were typically serially 2-fold diluted in pure DMSO starting from 10 mM down to 19.5 μM to produce the final concentrations ranging from […] in a 1% DMSO-aqueous reaction buffer.

BTK kinase = BTK kinase (Homo sapiens, UniProt Q06187); experiment: BTK ADP-Glo kinase selectivity assay, single concentration; conditions: remaining kinase activity at 40 μM compound, 50 μM ATP
Description: as §2, §3

Sequence of BTK kinase (Q06187 whole entry): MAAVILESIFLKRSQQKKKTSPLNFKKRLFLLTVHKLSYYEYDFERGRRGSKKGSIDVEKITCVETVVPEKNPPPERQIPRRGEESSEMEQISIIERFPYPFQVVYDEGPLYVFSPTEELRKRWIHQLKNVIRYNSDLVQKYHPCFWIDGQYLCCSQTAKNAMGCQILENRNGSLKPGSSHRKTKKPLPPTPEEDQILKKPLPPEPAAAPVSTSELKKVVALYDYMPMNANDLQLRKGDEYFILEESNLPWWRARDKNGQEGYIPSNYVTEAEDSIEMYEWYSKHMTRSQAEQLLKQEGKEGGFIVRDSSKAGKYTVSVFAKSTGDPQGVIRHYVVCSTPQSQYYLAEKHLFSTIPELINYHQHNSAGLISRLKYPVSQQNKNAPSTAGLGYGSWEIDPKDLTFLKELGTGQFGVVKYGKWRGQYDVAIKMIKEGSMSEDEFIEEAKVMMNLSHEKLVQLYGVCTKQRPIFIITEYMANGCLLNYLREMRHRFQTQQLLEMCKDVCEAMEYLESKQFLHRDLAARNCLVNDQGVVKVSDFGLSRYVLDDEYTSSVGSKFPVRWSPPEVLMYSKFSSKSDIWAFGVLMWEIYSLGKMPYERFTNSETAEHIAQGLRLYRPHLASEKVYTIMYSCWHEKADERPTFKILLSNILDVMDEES
T1 sequence (P08069 999-1274 limits assumed): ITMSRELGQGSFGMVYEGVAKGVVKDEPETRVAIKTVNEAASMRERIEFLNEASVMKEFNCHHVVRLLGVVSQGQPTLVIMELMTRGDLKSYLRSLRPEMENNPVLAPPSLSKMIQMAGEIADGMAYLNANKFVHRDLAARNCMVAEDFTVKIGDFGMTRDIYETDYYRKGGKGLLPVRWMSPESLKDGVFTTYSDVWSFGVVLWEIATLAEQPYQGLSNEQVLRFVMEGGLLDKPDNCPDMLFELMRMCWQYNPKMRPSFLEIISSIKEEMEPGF
Sequence of Met kinase (P08581 25-1390): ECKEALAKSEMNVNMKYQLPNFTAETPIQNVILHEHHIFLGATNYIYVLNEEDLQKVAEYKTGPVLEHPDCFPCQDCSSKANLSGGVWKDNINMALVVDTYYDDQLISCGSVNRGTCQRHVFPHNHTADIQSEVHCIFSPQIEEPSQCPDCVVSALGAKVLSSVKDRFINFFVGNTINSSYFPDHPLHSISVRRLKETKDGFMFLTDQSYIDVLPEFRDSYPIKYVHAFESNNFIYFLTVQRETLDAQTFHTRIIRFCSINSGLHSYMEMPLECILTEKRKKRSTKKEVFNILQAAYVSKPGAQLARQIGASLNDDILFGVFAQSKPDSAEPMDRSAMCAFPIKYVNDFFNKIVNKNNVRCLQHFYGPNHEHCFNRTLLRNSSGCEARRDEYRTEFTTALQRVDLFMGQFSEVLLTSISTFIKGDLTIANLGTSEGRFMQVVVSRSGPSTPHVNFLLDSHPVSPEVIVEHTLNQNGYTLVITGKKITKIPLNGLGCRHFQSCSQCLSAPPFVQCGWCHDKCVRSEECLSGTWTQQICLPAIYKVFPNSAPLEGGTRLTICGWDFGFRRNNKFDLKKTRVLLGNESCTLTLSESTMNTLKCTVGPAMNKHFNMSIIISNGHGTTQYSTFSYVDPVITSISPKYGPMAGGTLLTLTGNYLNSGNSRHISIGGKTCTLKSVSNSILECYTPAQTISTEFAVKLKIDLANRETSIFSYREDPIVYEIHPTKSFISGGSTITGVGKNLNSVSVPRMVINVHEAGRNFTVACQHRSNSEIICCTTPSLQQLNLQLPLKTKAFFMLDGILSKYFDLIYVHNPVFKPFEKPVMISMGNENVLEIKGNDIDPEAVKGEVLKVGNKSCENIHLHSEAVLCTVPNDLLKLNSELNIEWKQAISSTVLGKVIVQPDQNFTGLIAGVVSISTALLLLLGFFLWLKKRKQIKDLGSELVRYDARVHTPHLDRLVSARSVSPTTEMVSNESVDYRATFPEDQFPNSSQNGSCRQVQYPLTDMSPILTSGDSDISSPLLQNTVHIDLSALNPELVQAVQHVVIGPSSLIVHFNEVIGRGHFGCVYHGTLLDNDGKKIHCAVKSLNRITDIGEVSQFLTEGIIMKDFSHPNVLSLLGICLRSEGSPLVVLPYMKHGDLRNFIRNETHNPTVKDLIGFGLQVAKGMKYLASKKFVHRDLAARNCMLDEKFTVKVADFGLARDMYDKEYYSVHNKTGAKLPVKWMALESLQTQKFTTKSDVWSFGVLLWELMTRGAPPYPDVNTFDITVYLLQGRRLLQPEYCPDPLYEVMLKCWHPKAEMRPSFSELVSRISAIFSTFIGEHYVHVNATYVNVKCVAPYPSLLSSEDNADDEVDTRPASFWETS
T2 sequence (P06213 28-1382): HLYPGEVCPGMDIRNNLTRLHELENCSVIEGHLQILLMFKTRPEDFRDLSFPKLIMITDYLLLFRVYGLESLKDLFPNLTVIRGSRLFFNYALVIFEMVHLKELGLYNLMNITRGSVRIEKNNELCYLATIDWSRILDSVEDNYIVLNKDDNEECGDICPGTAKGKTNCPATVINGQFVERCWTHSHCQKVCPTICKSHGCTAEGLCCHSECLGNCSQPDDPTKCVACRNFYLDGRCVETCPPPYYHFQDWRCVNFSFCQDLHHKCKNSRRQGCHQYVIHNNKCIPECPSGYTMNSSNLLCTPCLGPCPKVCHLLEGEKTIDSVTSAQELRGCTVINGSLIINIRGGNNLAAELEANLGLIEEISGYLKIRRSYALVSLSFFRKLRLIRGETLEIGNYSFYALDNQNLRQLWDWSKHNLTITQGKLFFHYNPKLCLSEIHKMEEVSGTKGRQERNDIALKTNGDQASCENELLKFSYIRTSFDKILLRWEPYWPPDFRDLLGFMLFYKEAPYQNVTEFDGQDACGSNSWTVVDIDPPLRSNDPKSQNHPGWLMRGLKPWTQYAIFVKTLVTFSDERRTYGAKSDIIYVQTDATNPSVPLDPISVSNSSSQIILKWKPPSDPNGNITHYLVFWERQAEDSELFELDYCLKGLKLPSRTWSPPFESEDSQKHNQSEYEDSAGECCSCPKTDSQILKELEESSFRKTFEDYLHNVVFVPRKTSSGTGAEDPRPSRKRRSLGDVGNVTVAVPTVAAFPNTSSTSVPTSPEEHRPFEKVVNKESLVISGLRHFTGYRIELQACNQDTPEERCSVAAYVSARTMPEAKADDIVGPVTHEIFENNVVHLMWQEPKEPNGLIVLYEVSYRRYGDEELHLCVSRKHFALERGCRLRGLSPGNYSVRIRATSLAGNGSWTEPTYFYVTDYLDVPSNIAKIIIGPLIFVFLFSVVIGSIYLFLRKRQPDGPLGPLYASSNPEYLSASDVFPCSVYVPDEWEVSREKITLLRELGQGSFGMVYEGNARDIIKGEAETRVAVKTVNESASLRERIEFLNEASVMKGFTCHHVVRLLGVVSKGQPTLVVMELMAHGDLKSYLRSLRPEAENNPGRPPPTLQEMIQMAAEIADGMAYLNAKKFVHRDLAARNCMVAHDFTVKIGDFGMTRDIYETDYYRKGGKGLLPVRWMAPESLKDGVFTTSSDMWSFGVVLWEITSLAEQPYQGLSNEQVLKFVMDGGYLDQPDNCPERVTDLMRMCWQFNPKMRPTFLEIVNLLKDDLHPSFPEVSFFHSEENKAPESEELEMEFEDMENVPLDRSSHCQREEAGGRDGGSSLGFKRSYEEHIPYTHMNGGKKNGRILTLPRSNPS

inhibition mechanism with regard to ATP (IGF1R kinase [1]) | inhibition mechanism with regard to the substrate (IGF1R kinase [1]) | Activity Syk, % (Syk kinase) | Activity Met, % (Met kinase) | IC50 (IGF1R kinase [2]) | selectivity for IGF1R versus InsR (IGF1R kinase [2]) | IC50 (InsR kinase) | Activity Btk, % (BTK kinase) | stronger inhibition of InsR versus IGF1R (InsR kinase) | SMILES
non-competitive inhibition | non-competitive inhibition | 109% | 102% | 18 µM | essentially nonselective | 22 µM | 98% | – | O=C(Nc1ccc2c(c1)OCCO2)c1ccc2c(c1)OCCO2 [Compound L1]
– | – | 48% | 63% | 25 µM | – | 100 µM | 106% | – | O=C(Nc1ccc2c(c1)OCO2)c1ccc2c(c1)OCCO2 [Compound L2]
– | – | 88% | 77% | 26 µM | essentially nonselective | 29 µM | 106% | – | COc1ccc(NC(=O)c2ccc3c(c2)OCCO3)cc1 [Compound L3]
– | – | 53% | 60% | 25 µM | essentially nonselective | 30 µM | 113% | – | O=C(Nc1ccc2nccnc2c1)c1ccc2c(c1)OCCO2 [Compound L4]
– | – | 84% | 78% | ~100 µM | – | 20 µM | 92% | 5-10 fold | NS(=O)(=O)c1ccc(NNC(=O)c2ccc(NS(=O)(=O)c3cccs3)cc2)c([N+](=O)[O-])c1 [Compound T1]
– | – | 72% | 62% | 18 µM | – | 30 µM | 83% | – | COc1cc(CNC(=O)c2ccc[nH]c2=S)ccc1OCc1ccncc1 [Compound T2]
– | – | 115% | 98% | ~100 µM | – | 10 µM | 81% | 5-10 fold | CCOc1ccc(NS(=O)(=O)c2ccc3[nH]c(=O)cc(C(=O)Nc4ccn(C)n4)c3c2)cc1 [Compound T3]
non-competitive inhibition | non-competitive inhibition | 115% | 75% | 7 µM | – | 10 µM | 82% | – | O=C(NCc1ccc(Cn2ccnc2)cc1)c1ccc[nH]c1=S [Compound T4]
